What was measured:
apolipoprotein B mRNA [1] = assay: ob/ob mice (Example 50): apolipoprotein B mRNA levels in liver; type: in vivo, mouse; conditions: liver, high fat high cholesterol diet, 50 mg/kg i.p. twice a week, six weeks
Procedure: (§1) Ob/ob mice receiving a high fat, high cholesterol diet (60% kcal fat supplemented with 0.15% cholesterol) were treated with one of several oligonucleotides to evaluate their effect on apolipoprotein B-related phenotypic endpoints in ob/ob mice. After overnight fasting, mice from each group were dosed intraperitoneally twice a week with 50 mg/kg of ISIS 147483 (SEQ ID NO: 79), or 147764 (SEQ ID NO: 109), or the controls ISIS 116847 (SEQ ID NO: 857), or 141923 (SEQ ID NO: 858), or saline for six weeks. At study termination and forty eight hours after the final injections, animals were sacrificed and evaluated for target mRNA levels in liver, cholesterol and triglyceride levels, liver enzyme levels, serum glucose levels, and PTEN levels.

[2] = High fat fed mice (Example 51): intact oligonucleotide in liver tissue by capillary gel electrophoresis; type: in vivo, mouse; conditions: 50 mg/kg i.p. twice weekly
Procedure: (§2) In a further embodiment of the invention, the inhibition of apolipoprotein B mRNA in mice was compared to liver oligonucleotide concentration, total cholesterol, LDL-cholesterol and HDL-cholesterol. Male C57Bl/6 mice receiving a high fat diet (60% fat) were evaluated over the course of 6 weeks for the effects of treatment with twice weekly intraperitoneal injections of 50 mg/kg ISIS 147764 (SEQ ID NO: 109) or 50 mg/kg of the control oligonucleotide ISIS 141923 (SEQ ID NO: 858). Control animals received saline treatment. Animals were sacrificed after 2 days, 1, 2, 4 and 6 weeks of treatment. Each treatment group at each time point consisted of 8 mice.
(§3) Target expression in liver was measured by real-time PCR as described by other examples herein and is expressed as percent inhibition relative to saline treated mice. Total, LDL- and HDL-cholesterol levels were measured by routine clinical analysis using an Olympus Clinical Analyzer (Olympus America Inc., Melville, N.Y.) and are presented in mg/dL. Results from saline-treated animals are shown for comparison. Intact oligonucleotide in liver tissue was measured by capillary gel electrophoresis and is presented as micrograms of oligonucleotide per gram of tissue.
(§4) The oligonucleotide treatments described in this example were duplicated to investigate the extent to which effects of ISIS 147764 persist following cessation of treatment. Mice were treated as described, and sacrificed 1, 2, 4, 6 and 8 weeks following the cessation of oligonucleotide treatment.

apolipoprotein B mRNA [3] = assay: High fat fed mice, time-dependent effects and after cessation of dosing (Example 51): apolipoprotein B mRNA in liver; type: in vivo, mouse; conditions: liver, 50 mg/kg i.p. twice weekly
Procedure: as §2, §3, §4

[4] = High fat fed mice (Example 51): total, LDL- and HDL-cholesterol levels; type: in vivo, mouse; conditions: 50 mg/kg i.p. twice weekly
Procedure: as §2, §3, §4

PTEN = assay: ob/ob mice (Example 50): PTEN levels; type: in vivo, mouse; conditions: high fat high cholesterol diet, 50 mg/kg i.p. twice a week, six weeks
Procedure: as §1

[5] = ob/ob mice (Example 50): cholesterol, lipid, triglyceride, liver enzyme and glucose levels; type: in vivo, mouse; conditions: high fat high cholesterol diet, 50 mg/kg i.p. twice a week, six weeks
Procedure: as §1

apolipoprotein B protein [6] = assay: Apolipoprotein B protein secreted from primary Cynomolgous monkey hepatocytes, ELISA; type: cell-based; conditions: primary Cynomolgous hepatocytes; 150 and 300 nM
Procedure: Apolipoprotein B protein secreted from primary Cynomolgous hepatocytes treated with 150 and 300 nM of oligonucleotide was measured by ELISA using an apolipoprotein B protein specific kit (ALerCHEK Inc., Portland, Me.). Each result represents the average of 3 experiments.
Apolipoprotein B protein secreted primary Cynomolgous hepatocytes treated with 50 and 150 nM of ISIS 315089 and ISIS 281625 was measured by ELISA using an apolipoprotein B protein specific kit (ALerCHEK Inc., Portland, Me.). Each result represents the average of 3 experiments.
Apolipoprotein B protein secreted from primary Cynomolgous hepatocytes treated with 50 and 150 nM of ISIS 271009 and ISIS 301027 was measured by ELISA using an apolipoprotein B protein specific kit (ALerCHEK Inc., Portland, Me.). Each result represents the average of 3 experiments.

apolipoprotein B protein [7] = assay: Apolipoprotein B protein in primary Cynomolgous monkey hepatocytes, immunoblot; type: cell-based
Procedure: Additionally, protein was isolated from oligonucleotide-treated primary Cynomolgous monkey hepatocytes and subjected to immunoblot analysis to further assess apolipoprotein B protein expression. Immunoblotting was performed as described herein, using an antibody to human apolipoprotein B protein (US Biologicals, Swampscott, Mass.).

[8] = test system: Cynomolgous monkey apolipoprotein B mRNA; assay: Apolipoprotein B mRNA in primary Cynomolgous monkey hepatocytes, real-time PCR; type: cell-based; conditions: cynomolgous monkey primary hepatocytes; 10, 50, 150 or 300 nM
Summary of the method: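 Primary cynomolgus hepatocytes treated with antisense oligonucleotides at 10, 50, 150 or 300 nM (some sets 10–150 nM) for 24 or 48 h, depending on the set. mRNA quantified by real-time PCR using human apoB and GAPDH primers/probes. Values are percent inhibition normalized to untreated cells, averaged over 2–6 experiments.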

[9] = high fat fed male C57Bl/6 mice, treatment period 1 week
[10] = high fat fed male C57Bl/6 mice, treatment period 2 weeks
[11] = high fat fed male C57Bl/6 mice, treatment period 4 weeks
[12] = high fat fed male C57Bl/6 mice, treatment period 6 weeks
[13] = high fat fed male C57Bl/6 mice, treatment period 2 days
[14] = high fat fed mice, 1 week after cessation of dosing
[15] = high fat fed mice, 2 weeks after cessation of dosing
[16] = high fat fed mice, 4 weeks after cessation of dosing
[17] = high fat fed mice, 6 weeks after cessation of dosing
[18] = high fat fed mice, 8 weeks after cessation of dosing

Question: What does the source list for “141923 (CCTTCCCTGAAGGTTCCTCC; listed as DNA, chemistry not given here) [compound 141923]”?
Answer: mRNA % control ApoB (apolipoprotein B mRNA [1]): 100.0 % control; Intact oligonucleotide [2, 9]: 61 µg/g; Intact oligonucleotide [2, 10]: 152 µg/g; Intact oligonucleotide [2, 11]: 261 µg/g; Intact oligonucleotide [2, 12]: 631 µg/g; Intact oligonucleotide [2, 13]: 58 µg/g; Intact oligonucleotide [2, 14]: 297 µg/g; Intact oligonucleotide [2, 15]: 250 µg/g; Intact oligonucleotide [2, 16]: 207 µg/g; Intact oligonucleotide [2, 17]: 212 µg/g; Intact oligonucleotide [2, 18]: 128 µg/g; % Inhibition apolipoprotein B mRNA (apolipoprotein B mRNA [3]; [9]): 4%; % Inhibition apolipoprotein B mRNA (apolipoprotein B mRNA [3]; [10]): 7%; % Inhibition apolipoprotein B mRNA (apolipoprotein B mRNA [3]; [11]): 0%; % Inhibition apolipoprotein B mRNA (apolipoprotein B mRNA [3]; [12]): 0%; % Inhibition apolipoprotein B mRNA (apolipoprotein B mRNA [3]; [13]): 9%; % Inhibition apolipoprotein B mRNA (apolipoprotein B mRNA [3]; [14]): 15%; % Inhibition apolipoprotein B mRNA (apolipoprotein B mRNA [3]; [15]): 2%; % Inhibition apolipoprotein B mRNA (apolipoprotein B mRNA [3]; [16]): 7%; % Inhibition apolipoprotein B mRNA (apolipoprotein B mRNA [3]; [17]): 11%; % Inhibition apolipoprotein B mRNA (apolipoprotein B mRNA [3]; [18]): 7%; HDL-cholesterol [4, 9]: 116 mg/dL; LDL-cholesterol [4, 9]: 27 mg/dL; Total cholesterol [4, 9]: 146 mg/dL; HDL-cholesterol [4, 10]: 122 mg/dL; LDL-cholesterol [4, 10]: 27 mg/dL; Total cholesterol [4, 10]: 152 mg/dL; HDL-cholesterol [4, 11]: 128 mg/dL; LDL-cholesterol [4, 11]: 38 mg/dL; Total cholesterol [4, 11]: 169 mg/dL; HDL-cholesterol [4, 12]: 166 mg/dL; LDL-cholesterol [4, 12]: 56 mg/dL; Total cholesterol [4, 12]: 225 mg/dL; HDL-cholesterol [4, 13]: 70 mg/dL; LDL-cholesterol [4, 13]: 8 mg/dL; Total cholesterol [4, 13]: 99 mg/dL; HDL-cholesterol [4, 14]: 121 mg/dL; LDL-cholesterol [4, 14]: 24 mg/dL; Total cholesterol [4, 14]: 158 mg/dL; HDL-cholesterol [4, 15]: 105 mg/dL; LDL-cholesterol [4, 15]: 24 mg/dL; Total cholesterol [4, 15]: 139 mg/dL; HDL-cholesterol [4, 16]: 135 mg/dL; LDL-cholesterol [4, 16]: 32 mg/dL; Total cholesterol [4, 16]: 185 mg/dL; HDL-cholesterol [4, 17]: 136 mg/dL; LDL-cholesterol [4, 17]: 32 mg/dL; Total cholesterol [4, 17]: 186 mg/dL; HDL-cholesterol [4, 18]: 108 mg/dL; LDL-cholesterol [4, 18]: 24 mg/dL; Total cholesterol [4, 18]: 151 mg/dL; mRNA % control PTEN (PTEN): 113.6 % control; Glucose [5]: 328.5 mg/dL; Lipoproteins CHOL [5]: 646.3 mg/dL; Lipoproteins TRIG [5]: 196.5 mg/dL; Liver Enzymes ALT [5]: 701.7 IU/L; Liver Enzymes AST [5]: 329.3 IU/L

Question: For “GCCTCAGTCTGCTTTACACC (gapmer: ten 2'-deoxy gap, five-nucleotide wings, wing chemistry not given here) [ISIS 326358]”, which “secretion of apolipoprotein B protein (ELISA)” value (apolipoprotein B protein [6]) is on record?
Answer: decrease

Question: What about the “apolipoprotein B expression (immunoblot)” value (apolipoprotein B protein [7]) of the same substance?
Answer: substantial reduction

Question: What about the “inhibition of apolipoprotein B mRNA expression” value [8] of the same substance?
Answer: in a dose- and time-dependent manner

Source: US7803930B2, “Antisense modulation of apolipoprotein B-expression” (Isis Pharmaceuticals, Inc., priority 2002, dated 2010)
